The source of these data is US12441691B2 (Cytokinetics, Inc., priority 2020, dated 2025).

The experiment concerns rabbit skeletal myofibrils (fast skeletal myofibrils). In words: Activation of fast skeletal myofibrils (PUMA assay, AC1.4). In kind it is biochemical. Conditions: calcium at pCa25, AC1.4 = concentration at which the compound increased the enzymatic activity. An outline of the steps:
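In 12 mM PIPES pH 6.8 with 2 mM MgCl2 and 1 mM DTT, Triton-washed rabbit skeletal myofibrils were run at the pCa25 calcium level. Myosin-made ADP was recycled through a PK/LDH coupled system; NADH loss read at 340 nm.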
For the compound `CC[C@H](C)[C@H]1C(=O)Nc2ccccc2CN1C(=O)COc1ccccc1C(N)=O` [Compound 201, 2-(2-((S)-3-((S)-sec-butyl)-2-oxo-1,2,3,5-tetrahydro-4H-benzo[e][1,4]diazepin-4-yl)-2-oxoethoxy)benzamide], the AC1.4 was found to be 0.05 µM.

Regarding `CC[C@H](C)[C@H]1C(=O)Nc2ccccc2CN1C(=O)Nc1ccc(NC(C)=O)nc1` [Compound 202, (S)-N-(6-acetamidopyridin-3-yl)-3-((S)-sec-butyl)-2-oxo-1,2,3,5-tetrahydro-4H-benzo[e][1,4]diazepine-4-carboxamide], the AC1.4 was determined as 0.17 µM.

For the compound `CC[C@H](C)[C@H]1C(=O)Nc2ccccc2CN1C(=O)NCCO` [Compound 203, (S)-3-((S)-sec-butyl)-N-(2-hydroxyethyl)-2-oxo-1,2,3,5-tetrahydro-4H-benzo[e][1,4]diazepine-4-carboxamide], the AC1.4 came to 1.75 µM.

For the compound `CC[C@H](C)[C@H]1C(=O)Nc2ccccc2CN1C(=O)NCC(N)=O` [Compound 204, (S)-N-(2-amino-2-oxoethyl)-3-((S)-sec-butyl)-2-oxo-1,2,3,5-tetrahydro-4H-benzo[e][1,4]diazepine-4-carboxamide], the AC1.4 was 3.66 µM.

Turning to `CC[C@H](C)[C@H]1C(=O)Nc2ccccc2CN1C(=O)NCCC(N)=O` [Compound 205, (S)-N-(3-amino-3-oxopropyl)-3-((S)-sec-butyl)-2-oxo-1,2,3,5-tetrahydro-4H-benzo[e][1,4]diazepine-4-carboxamide], the AC1.4 is 1.58 µM.

Turning to `CC[C@H](C)[C@H]1C(=O)Nc2ccccc2CN1C(=O)NCC(=O)NC` [Compound 206, (S)-3-((S)-sec-butyl)-N-(2-(methylamino)-2-oxoethyl)-2-oxo-1,2,3,5-tetrahydro-4H-benzo[e][1,4]diazepine-4-carboxamide], the AC1.4 worked out at 4.98 µM.

With `CC[C@H](C)[C@H]1C(=O)Nc2ccccc2CN1C(=O)NC[C@H](O)CO` [Compound 207, (S)-3-((S)-sec-butyl)-N-((S)-2,3-dihydroxypropyl)-2-oxo-1,2,3,5-tetrahydro-4H-benzo[e][1,4]diazepine-4-carboxamide], the AC1.4 was 3.62 µM.

As to `CC[C@H](C)[C@H]1C(=O)Nc2ccccc2CN1C(=O)NC[C@@H](O)CO` [Compound 208, (S)-3-((S)-sec-butyl)-N-((R)-2,3-dihydroxypropyl)-2-oxo-1,2,3,5-tetrahydro-4H-benzo[e][1,4]diazepine-4-carboxamide], the AC1.4 is 2.70 µM.

Turning to `CC[C@H](C)[C@H]1C(=O)Nc2ccccc2CN1C(=O)N[C@@H]1CCNC1=O` [Compound 209, (S)-3-((S)-sec-butyl)-2-oxo-N-((R)-2-oxopyrrolidin-3-yl)-1,2,3,5-tetrahydro-4H-benzo[e][1,4]diazepine-4-carboxamide], the AC1.4 amounted to 4.17 µM.

Take `CC[C@H](C)[C@H]1C(=O)Nc2ccccc2CN1C(=O)N[C@H]1CCNC1=O` [Compound 210, (S)-3-((S)-sec-butyl)-2-oxo-N-((S)-2-oxopyrrolidin-3-yl)-1,2,3,5-tetrahydro-4H-benzo[e][1,4]diazepine-4-carboxamide]: the AC1.4 turned out to be 4.25 µM.

In the case of `CC[C@H](C)[C@H]1C(=O)Nc2ccccc2CN1C(=O)NCCNC(C)=O` [Compound 211, (S)-N-(2-acetamidoethyl)-3-((S)-sec-butyl)-2-oxo-1,2,3,5-tetrahydro-4H-benzo[e][1,4]diazepine-4-carboxamide], the AC1.4 amounted to 2.92 µM.

With `CC[C@H](C)[C@H]1C(=O)Nc2ccccc2CN1C(=O)NCCNC(N)=O` [Compound 212, (S)-3-((S)-sec-butyl)-2-oxo-N-(2-ureidoethyl)-1,2,3,5-tetrahydro-4H-benzo[e][1,4]diazepine-4-carboxamide], the AC1.4 came to 1.27 µM.

For the compound `CC[C@H](C)[C@H]1C(=O)Nc2ccccc2CN1C(=O)NCC[S+](C)[O-]` (stereo partly drawn) [Compound 213, (3S)-3-((S)-sec-butyl)-N-(2-(methylsulfinyl)ethyl)-2-oxo-1,2,3,5-tetrahydro-4H-benzo[e][1,4]diazepine-4-carboxamide], the AC1.4 was 4.04 µM.

In the case of `CC[C@H](C)[C@H]1C(=O)Nc2ccccc2CN1C(=O)NCc1cncn1C` [Compound 214, (S)-3-((S)-sec-butyl)-N-((1-methyl-1H-imidazol-5-yl)methyl)-2-oxo-1,2,3,5-tetrahydro-4H-benzo[e][1,4]diazepine-4-carboxamide], the AC1.4 turned out to be 1.72 µM.

With `CC[C@H](C)[C@H]1C(=O)Nc2ccccc2CN1C(=O)NC[C@H]1CCC(=O)N1` [Compound 215, (S)-3-((S)-sec-butyl)-2-oxo-N-(((R)-5-oxopyrrolidin-2-yl)methyl)-1,2,3,5-tetrahydro-4H-benzo[e][1,4]diazepine-4-carboxamide], the AC1.4 is 4.65 µM.

For the compound `CC[C@H](C)[C@H]1C(=O)Nc2ccccc2CN1C(=O)N[C@H]1CCCNC1=O` [Compound 216, (S)-3-((S)-sec-butyl)-2-oxo-N-((S)-2-oxopiperidin-3-yl)-1,2,3,5-tetrahydro-4H-benzo[e][1,4]diazepine-4-carboxamide], the AC1.4 was determined as 2.64 µM.

For `CC[C@H](C)[C@H]1C(=O)Nc2ccccc2CN1C(=O)N[C@@H]1CCCNC1=O` [Compound 217, (S)-3-((S)-sec-butyl)-2-oxo-N-((R)-2-oxopiperidin-3-yl)-1,2,3,5-tetrahydro-4H-benzo[e][1,4]diazepine-4-carboxamide], the AC1.4 amounted to 2.45 µM.

With `CC[C@H](C)[C@H]1C(=O)Nc2ccccc2CN1C(=O)N[C@@H]1CCC(=O)NC1` [Compound 218, (S)-3-((S)-sec-butyl)-2-oxo-N-((R)-6-oxopiperidin-3-yl)-1,2,3,5-tetrahydro-4H-benzo[e][1,4]diazepine-4-carboxamide], the AC1.4 is 0.88 µM.

For the compound `CC[C@H](C)[C@H]1C(=O)Nc2ccccc2CN1C(=O)N[C@H]1CCC(=O)NC1` [Compound 219, (S)-3-((S)-sec-butyl)-2-oxo-N-((S)-6-oxopiperidin-3-yl)-1,2,3,5-tetrahydro-4H-benzo[e][1,4]diazepine-4-carboxamide], the AC1.4 was found to be 2.10 µM.

For the compound `CC[C@H](C)[C@H]1C(=O)Nc2ccccc2CN1C(=O)NCCS(C)(=O)=O` [Compound 220, (S)-3-((S)-sec-butyl)-N-(2-(methylsulfonyl)ethyl)-2-oxo-1,2,3,5-tetrahydro-4H-benzo[e][1,4]diazepine-4-carboxamide], the AC1.4 was 3.01 µM.

As for `CC[C@H](C)[C@H]1C(=O)Nc2ccccc2CN1C(=O)NCCS(N)(=O)=O` [Compound 221, (S)-3-((S)-sec-butyl)-2-oxo-N-(2-sulfamoylethyl)-1,2,3,5-tetrahydro-4H-benzo[e][1,4]diazepine-4-carboxamide], the AC1.4 amounted to 1.80 µM.

Take `CC[C@H](C)[C@H]1C(=O)Nc2ccccc2CN1C(=O)NCCN1CC[C@@H](O)C1` [Compound 222, (S)-3-((S)-sec-butyl)-N-(2-((R)-3-hydroxypyrrolidin-1-yl)ethyl)-2-oxo-1,2,3,5-tetrahydro-4H-benzo[e][1,4]diazepine-4-carboxamide]: the AC1.4 was 2.02 µM.

With `CC[C@H](C)[C@H]1C(=O)Nc2ccccc2CN1C(=O)NCCN1CC[C@H](O)C1` [Compound 223, (S)-3-((S)-sec-butyl)-N-(2-((S)-3-hydroxypyrrolidin-1-yl)ethyl)-2-oxo-1,2,3,5-tetrahydro-4H-benzo[e][1,4]diazepine-4-carboxamide], the AC1.4 was 1.43 µM.

Turning to `CC[C@H](C)[C@H]1C(=O)Nc2ccccc2CN1C(=O)NC1CCS(=O)(=O)C1` (stereo partly drawn) [Compound 224, (3S)-3-((S)-sec-butyl)-N-(1,1-dioxoidotetrahydrothiophen-3-yl)-2-oxo-1,2,3,5-tetrahydro-4H-benzo[e][1,4]diazepine-4-carboxamide], the AC1.4 is 2.85 µM.

Turning to `CC[C@H](C)[C@H]1C(=O)Nc2ccccc2CN1C(=O)N(C)CCO` [Compound 225, (S)-3-((S)-sec-butyl)-N-(2-hydroxyethyl)-N-methyl-2-oxo-1,2,3,5-tetrahydro-4H-benzo[e][1,4]diazepine-4-carboxamide], the AC1.4 came to 1.67 µM.

Take `CC[C@H](C)[C@H]1C(=O)Nc2ccccc2CN1C(=O)N1CCNCC1` [Compound 226, (S)-3-((S)-sec-butyl)-4-(piperazine-1-carbonyl)-1,3,4,5-tetrahydro-2H-benzo[e][1,4]diazepin-2-one]: the AC1.4 is 3.91 µM.

As to `CC[C@H](C)[C@H]1C(=O)Nc2ccccc2CN1C(=O)N1CCC(O)C1` (stereo partly drawn) [Compound 227, (3S)-3-((S)-sec-butyl)-4-(3-hydroxypyrrolidine-1-carbonyl)-1,3,4,5-tetrahydro-2H-benzo[e][1,4]diazepin-2-one], the AC1.4 came out at 2.29 µM.

Regarding `CC[C@H](C)[C@H]1C(=O)Nc2ccccc2CN1C(=O)N(C)CC(N)=O` [Compound 228, (S)-N-(2-amino-2-oxoethyl)-3-((S)-sec-butyl)-N-methyl-2-oxo-1,2,3,5-tetrahydro-4H-benzo[e][1,4]diazepine-4-carboxamide], the AC1.4 stood at 3.76 µM.

For `CC[C@H](C)[C@H]1C(=O)Nc2ccccc2CN1C(=O)N1CCNC(=O)C1` [Compound 229, (S)-3-((S)-sec-butyl)-4-(3-oxopiperazine-1-carbonyl)-1,3,4,5-tetrahydro-2H-benzo[e][1,4]diazepin-2-one], the AC1.4 came out at 3.74 µM.

With `CC[C@H](C)[C@H]1C(=O)Nc2ccccc2CN1C(=O)N1CCN(C)CC1` [Compound 230, (S)-3-((S)-sec-butyl)-4-(4-methylpiperazine-1-carbonyl)-1,3,4,5-tetrahydro-2H-benzo[e][1,4]diazepin-2-one], the AC1.4 worked out at 1.31 µM.

As to `CC[C@H](C)[C@H]1C(=O)Nc2ccccc2CN1C(=O)N1CCN[C@@H](C)C1` [Compound 231, (S)-3-((S)-sec-butyl)-4-((S)-3-methylpiperazine-1-carbonyl)-1,3,4,5-tetrahydro-2H-benzo[e][1,4]diazepin-2-one], the AC1.4 stood at 4.86 µM.
